The results in this text go back to patent US20030236213A1, “Mimics of acyl coenzyme-A comprising pantolactone and pantothenic acid derivatives, compositions thereof, and methods of cholesterol management and related uses” (priority 2002, published 2003).

One series has as its system obese female Zucker rats. The series can be described thus: Oral daily treatment of obese female Zucker rats for fourteen days. Type of series: in vivo, rat. Conditions: 14 days; for Glucose, Percent Change from Pre-treatment: blood, 6-hour fast; for Glucose, Percent Change from Pre-treatment / BHA, Percent Change from Pre-treatment / HDL-C, Percent Change from Pre-treatment / Insulin, Percent Change from Pre-treatment / NEFA, Percent Change from Pre-treatment / Non HDL-C, Percent Change from Pre-treatment / TC, Percent Change from Pre-treatment / TG, Percent Change from Pre-treatment: oral daily; for % wt. gain / HDL-C/non HDL-C: oral gavage daily; for BHA, Percent Change from Pre-treatment / HDL-C, Percent Change from Pre-treatment / Insulin, Percent Change from Pre-treatment / NEFA, Percent Change from Pre-treatment / Non HDL-C, Percent Change from Pre-treatment / TC, Percent Change from Pre-treatment / TG, Percent Change from Pre-treatment: serum. The method, then: In a number of different experiments, compounds described in Table 1 were administered daily to 11-13 week old chow fed obese female Zucker rats for 14 days in the morning by oral gavage in 20% ethanol/80% polyethylene glycol-200 (dosing vehicle)(“EP”). The dosing vehicle was administered to control animals in parallel experiments.
Body weight was determined daily prior to dosing. Animals were allowed free access to rodent chow and water throughout the study. Blood glucose was determined after a 6-hour fast in the afternoon without anesthesia from a tail vein. Serum was also prepared from a blood sample subsequently obtained from the orbital venous plexus (with O2/CO2 anesthesia) prior to and after one week treatment and used lipid and insulin determinations. At two weeks, blood glucose was again determined after a 6-hour fast without anesthesia from a tail vein. Soon thereafter, animals were sacrificed by CO2 inhalation in the afternoon and cardiac blood serum was collected and assessed for various lipids and insulin.

A further series deals with primary rat hepatocytes. Nature of the series: Synthesis of total lipids (14C-acetate labeling) in primary rat hepatocytes. Type of series: cell-based. Conditions: Hepatocyte, 14C-acetate labeling 4 hr at 37° C., 1-300 μM, read-out: IC50, total lipid synthesis. Here is the method: A male Sprague-Dawley rate was anesthetized by administration of sodium pentobarbitol by intraperitoneal at 80 mg/kg. In situ perfusion of the liver was performed as follows. The abdomen of the animal was opened, the portal vein canulated, and the liver perfused with WOSH solution (149 mM NaCl, 9.2 mM Na HEPES, 1.7 mM Fructose, 0.5 mM EGTA, 0.029 mM Phenol red, 10 U/ml heparin, pH 7.5) at a flow rate of 30 ml/min for 6 minutes. To digest the liver, DSC solution (6.7 mM KCl, 143 mM NaCl, 9.2 mM Na HEPES, 5 mM CaCl2-2H2O, 1.7 mM Fructose, 0.029 mM Phenol red, 0.2% BSA, 100 U/ml collagenase Type I, 160 BAEE/ml trypsin inhibitor, pH 7.5) was perfused through the liver at a flow rate of 30 ml/min for 6 minutes at a temperature of 37° C. After digestion, cells were dispersed in a solution of DMEM-(DMEM containing 2 mM GlutMax-1, 0.2% BSA, 5% FBS, 12 nM insulin, 1.2 μM hydrocortisone) to stop the digestion process. The crude cell suspension was filtered through three layers of stainless steel mesh with pore sizes of 250, 106, and 75 μm respectively. Filtered cells were centrifuged at 50×g for two minutes and the supernatant discarded. The resulting cell pellet was resuspended in DMEM and centrifuged again. […]

A word on the melting point: it is the temperature of the solid-liquid transition. In the case of `CC(C)(CO)[C@H](O)C(=O)NCCNC(=O)[C@@H](O)C(C)(C)CO` [Compound V4], the melting point lay in the range of 124.8 to 124.9 °C. Further, in the series on obese female Zucker rats (30 mg/kg/day), the “Glucose, Percent Change from Pre-treatment” value (from here on “Glucose, Percent Change”) is listed as 2%; the “% wt. gain” value is listed as 12%; the “HDL-C/non HDL-C” value worked out at 1; the “BHA, Percent Change from Pre-treatment” value was 79%. For the same compound, in the series with obese female Zucker rats (30 mg/kg/day), the “HDL-C, Percent Change from Pre-treatment” value turned out to be 5%; the “Insulin, Percent Change from Pre-treatment” value (from here on “Insulin, Percent Change”) came out at 4%; the “NEFA, Percent Change from Pre-treatment” value was −28%; the “Non HDL-C, Percent Change from Pre-treatment” value (from here on “Non HDL-C, Percent Change”) came to 75%. Also, in the series with obese female Zucker rats (30 mg/kg/day), the “TC, Percent Change from Pre-treatment” value is on record as 23% and the “TG, Percent Change from Pre-treatment” value was 22%.

As for `CC(C)(CO)C(O)C(=O)NCc1cccnc1` (centres unmarked) [AB, 2,4-Dihydroxy-3,3-dimethyl-N-pyridin-3ylmethyl-butyramide], the melting point was 120 to 121.5 °C.

As to `CC(C)(CO)C(O)C(=O)NCCOCCNC(=O)C(O)C(C)(C)CO` (centres unmarked) [U, N-{2-[2-(2,4-Dihydroxy-3,3-dimethylbutyrylamino)-ethoxy]-ethyl}-2,4-dihydroxy-3,3-dimethylbutyramide], in the series on obese female Zucker rats (100 mg/kg/day), the “Glucose, Percent Change” value is reported as −3%; the “% wt. gain” value was 9%; the “HDL-C/non HDL-C” value stood at 2; the “BHA, Percent Change from Pre-treatment” value amounted to 254%. Also, in the series on obese female Zucker rats (100 mg/kg/day), the “HDL-C, Percent Change from Pre-treatment” value is 14%; the “Insulin, Percent Change” value is 6%; the “NEFA, Percent Change from Pre-treatment” value worked out at 13%; the “Non HDL-C, Percent Change” value is −2%. In addition, in the series with obese female Zucker rats (100 mg/kg/day), the “TC, Percent Change from Pre-treatment” value worked out at 8% and the “TG, Percent Change from Pre-treatment” value is recorded as 1%.

As usually defined, the IC50 is the concentration that inhibits the measured activity by half. With `Cc1cc(OCCCCC(C)(C)CO)cc(C)c1NC(=O)C(O)C(C)(C)CO` (centres unmarked) [Compound AC, 2,4-dihydroxy-N-[4-(6-hydroxy-5,5-dimethyl-hexyloxy)-2,6-dimethyl-phenyl]-3,3-dimethyl-butyramide], the 50% inhibitory concentration (IC50) with primary rat hepatocytes turned out to be 2.1 µM.

For the compound `CC(C)(CO)[C@H](O)C(=O)NCCNC(=O)[C@H](O)C(C)(C)CO` [Compound V1, (R,S)-N-[2-(2,4-Dihydroxy-3,3-dimethylbutyrylamino)-ethyl]-2,4-dihydroxy-3,3-dimethyl-butyramide], in the series on obese female Zucker rats (100 mg/kg/day), the “Glucose, Percent Change” value is given as −3%; the “% wt. gain” value turned out to be 11%; the “HDL-C/non HDL-C” value was found to be 1; the “BHA, Percent Change from Pre-treatment” value stood at 63%. In addition, in the series with obese female Zucker rats (100 mg/kg/day), the “HDL-C, Percent Change from Pre-treatment” value is listed as 77%; the “Insulin, Percent Change” value is given as −20%; the “NEFA, Percent Change from Pre-treatment” value is listed as 7%; the “Non HDL-C, Percent Change” value was found to be 6%. In the series with obese female Zucker rats (100 mg/kg/day), the “TC, Percent Change from Pre-treatment” value was found to be 34% and the “TG, Percent Change from Pre-treatment” value is recorded as 22%.

`CCCCCOc1cc(C)c(NC(=O)C(O)C(C)(C)CO)c(C)c1` (centres unmarked) [AA, N-(2,6-dimethyl-4-pentyloxy-phenyl)-2,4-dihydroxy-3,3-dimethyl-butyramide] yielded a melting point of 101 to 102.5 °C. Besides, in the series on obese female Zucker rats (100 mg/kg/day), the “Glucose, Percent Change” value is 10%; the “% wt. gain” value came to 11%; the “HDL-C/non HDL-C” value came out at 3; the “BHA, Percent Change from Pre-treatment” value amounted to 51%. In the series with obese female Zucker rats (100 mg/kg/day), the “HDL-C, Percent Change from Pre-treatment” value amounted to 87%; the “Insulin, Percent Change” value was −10%; the “NEFA, Percent Change from Pre-treatment” value is reported as −30%; the “Non HDL-C, Percent Change” value is on record as −17%. Also, in the series on obese female Zucker rats (100 mg/kg/day), the “TC, Percent Change from Pre-treatment” value is reported as 41% and the “TG, Percent Change from Pre-treatment” value was −38%.

For `CC(C)(CO)C(O)C(=O)NCCNC(=O)C(O)C(C)(C)CO` (racemic) [Compound V2, N-[2-(2,4-Dihydroxy-3,3-dimethylbutyrylamino)-ethyl]-2,4-dihydroxy-3,3-dimethylbutyramide], in the series on obese female Zucker rats (30 mg/kg/day), the “Glucose, Percent Change” value was −8%; the “% wt. gain” value is given as 10%; the “HDL-C/non HDL-C” value is given as 2; the “BHA, Percent Change from Pre-treatment” value worked out at 58%. Moreover, in the series on obese female Zucker rats (30 mg/kg/day), the “HDL-C, Percent Change from Pre-treatment” value was −20%; the “Insulin, Percent Change” value was −53%; the “NEFA, Percent Change from Pre-treatment” value is reported as −23%; the “Non HDL-C, Percent Change” value is 23%. In addition, in the series with obese female Zucker rats (30 mg/kg/day), the “TC, Percent Change from Pre-treatment” value is recorded as −13% and the “TG, Percent Change from Pre-treatment” value came to 36%.

`CC(C)(CO)[C@@H](O)C(=O)NCCNC(=O)[C@H](O)C(C)(C)CO` [Compound V3, (R,R)-N-[2-(2,4-Dihydroxy-3,3-dimethylbutyrylamino)-ethyl]-2,4-dihydroxy-3,3-dimethylbutyramide] came in with a melting point of 124.8 to 124.9 °C. Moreover, in the series on obese female Zucker rats (30 mg/kg/day), the “Glucose, Percent Change” value stood at 3%; the “% wt. gain” value was determined as 9%; the “HDL-C/non HDL-C” value was 2; the “BHA, Percent Change from Pre-treatment” value turned out to be 69%. For the same compound, in the series with obese female Zucker rats (30 mg/kg/day), the “HDL-C, Percent Change from Pre-treatment” value came out at 7%; the “Insulin, Percent Change” value is listed as 11%; the “NEFA, Percent Change from Pre-treatment” value is recorded as −16%; the “Non HDL-C, Percent Change” value came out at 16%. Also, in the series with obese female Zucker rats (30 mg/kg/day), the “TC, Percent Change from Pre-treatment” value stood at 9% and the “TG, Percent Change from Pre-treatment” value turned out to be 14%.
